{"source": "patent US20110177161A1", "about": "“PHARMACEUTICAL COMPOSITIONS OF [5(S)-(2'-HYDROXYETHOXY)-20(S)-CAMPTOTHECIN” (DR. REDDY'S LABORATORIES LIMITED, priority 2007, published 2011)", "key": {"[1]": {"experiment": "Solution stability in different alkaline solutions (HPLC impurities)", "type": "physicochemical", "set-up": "C = Dimer impurity: unit not given beside the values"}, "physchem": {"experiment": "physchem", "type": "physicochemical", "procedure": "Excess amounts of DRF-(5S,20S)-1042 were added to aqueous solutions of HPBCD with concentrations ranging from 0-40% w/v and the suspensions were shaken at 200 rpm and 25° C. in an incubator shaker, till no further DRF-(5S,20S)-1042 went into solution. The solutions were filtered through a 0.22 μm membrane filter and subjected to analysis by HPLC by a process described above. The results are described in Table 3 and in FIG. 1."}, "in vivo": {"experiment": "in vivo", "set-up": "species or system male Wistar rats", "details": "male, Wistar, rat, po, 2.5 mg/kg", "procedure": "5(S)-CPT (2.5 mg/kg) and 5(RS)-CPT (5 mg/kg, including 2.5 mg/kg of 5(S)-CPT in the mixture) were been administered to male Wistar Rats to evaluate oral pharmacokinetics.\nMale Wistar rats, 6-8 weeks of age and weighing between 205 and 218 g were divided into groups of four rats. The oral pharmacokinetics test was carried out in overnight fasted condition and intravenous pharmacokinetics was carried out in fed condition. The test drugs were administered as a solution by oral gavage or lateral tail vein injection. Sparse blood samples of about 250 microliters were collected from retro-orbital plexus at designated time points into microcentrifuge tubes containing 25 microliters of EDTA. Plasma was separated by centrifuging blood at 12,800 rpm for 2 min and refrigerated until analysis.\nSamples were tested for the presence of the test drug as follows. An aliquot of 100 μL plasma (stored at 8° C.) was precipitated with 400 μL of cold methanol for the estimation of total (lactone+carboxylate). […] Concentrations of the test drug were calculated from the linearity plotted by spiking known concentrations of the test drug in blank rat plasma. The pharmacokinetics of the test drug was calculated using non-compartmental analysis."}, "[2]": {"tested_on": "Human bone marrow mononuclear cells", "experiment": "Human bone marrow assay (CFU-GM colonies)", "type": "cell-based", "details": "GI90 for human cell toxicity to GI50 for anticancer activity", "procedure": "Methocult.TM. GF (Cat No: H4534, Poietics, Biowhittakar, USA) medium comprising Methycellulose in iscove's MDM, Fetal bovine serum, Bovine serum albumin, 2-Mercaptoethanol, L-Glutamine, rhStem cell factor, rhGM-CSF and rhIL-3 was used for the assay. Human bone marrow mononuclear cells (Cat No. 2M-125C, Poietics, Biowhittakar, USA) were mixed with Methocult GF and the cell density was adjusted to 3×10^5 cells/ml. From this preparation, 500 μL aliquots were made and […] of 20× drug solution or vehicle was added to each aliquot and mixed thoroughly. 100 μL of clonogenic medium was plated into each well and the plates were allowed to gel at 4° C. for 15 minutes. Plates were incubated at 37 degree C. in a fully humidified atmosphere of 5% CO2 in an incubator for 14 days. CFU-GM colonies were counted under an inverted microscope as aggregates of 50 cells or more. The percentage colony inhibition was calculated using the following formula: 100−[(number of colonies in drug treated wells/Number of colonies in control wells)×100]."}, "[3]": {"details": "Arginine neutralized, 24 hours RT"}, "[4]": {"details": "Meglumine neutralized, 24 hours RT"}}, "note": "Marks after values point to notes of the source that are not given here."}
{"smiles": "CC[C@@]1(O)C(=O)OCc2c1cc1n(c2=O)[C@@H](OCCO)c2cc3ccccc3nc2-1", "note": "[DRF-(5S,20S)-1042, 5(S)-(2′-hydroxyethoxy)-20(S)-camptothecin]", "values": [{"measurement": "A = DRF (5R,20S)-1042", "setting": "[1]; Arginine as is, 24 hours RT", "result": 5.22}, {"measurement": "B = Decarboxylated impurity", "setting": "[1]; Arginine as is, 24 hours RT", "result": 0.19}, {"measurement": "C = Dimer impurity", "setting": "[1]; Arginine as is, 24 hours RT", "result": 0.95}, {"measurement": "D = Total impurities excluding DRF (5R,20S)-1042", "setting": "[1]; Arginine as is, 24 hours RT", "result": 3.23}, {"measurement": "A = DRF (5R,20S)-1042", "setting": "[1]; Arginine as is, Initial", "result": 3.45}, {"measurement": "B = Decarboxylated impurity", "setting": "[1]; Arginine as is, Initial", "result": 0.06}, {"measurement": "C = Dimer impurity", "setting": "[1]; Arginine as is, Initial", "result": 0.88}, {"measurement": "D = Total impurities excluding DRF (5R,20S)-1042", "setting": "[1]; Arginine as is, Initial", "result": 2.50}, {"measurement": "A = DRF (5R,20S)-1042", "setting": "[1]; [3]", "result": 3.26}, {"measurement": "B = Decarboxylated impurity", "setting": "[1]; [3]", "result": 0.18}, {"measurement": "C = Dimer impurity", "setting": "[1]; [3]", "result": 0.93}, {"measurement": "D = Total impurities excluding DRF (5R,20S)-1042", "setting": "[1]; [3]", "result": 3.11}, {"measurement": "A = DRF (5R,20S)-1042", "setting": "[1]; Arginine neutralized, Initial", "result": 3.38}, {"measurement": "B = Decarboxylated impurity", "setting": "[1]; Arginine neutralized, Initial", "result": 0.04}, {"measurement": "C = Dimer impurity", "setting": "[1]; Arginine neutralized, Initial", "result": 0.9}, {"measurement": "D = Total impurities excluding DRF (5R,20S)-1042", "setting": "[1]; Arginine neutralized, Initial", "result": 2.64}, {"measurement": "A = DRF (5R,20S)-1042", "setting": "[1]; Meglumine as is, 24 hours RT", "result": 2.30}, {"measurement": "B = Decarboxylated impurity", "setting": "[1]; Meglumine as is, 24 hours RT", "result": 0.33}, {"measurement": "C = Dimer impurity", "setting": "[1]; Meglumine as is, 24 hours RT", "result": "7.17*"}, {"measurement": "D = Total impurities excluding DRF (5R,20S)-1042", "setting": "[1]; Meglumine as is, 24 hours RT", "result": 11.1}, {"measurement": "A = DRF (5R,20S)-1042", "setting": "[1]; Meglumine as is, Initial", "result": 2.77}, {"measurement": "B = Decarboxylated impurity", "setting": "[1]; Meglumine as is, Initial", "result": 0.21}, {"measurement": "C = Dimer impurity", "setting": "[1]; Meglumine as is, Initial", "result": 12.04}, {"measurement": "D = Total impurities excluding DRF (5R,20S)-1042", "setting": "[1]; Meglumine as is, Initial", "result": 21.15}, {"measurement": "A = DRF (5R,20S)-1042", "setting": "[1]; [4]", "result": 2.57}, {"measurement": "B = Decarboxylated impurity", "setting": "[1]; [4]", "result": 0.33}, {"measurement": "C = Dimer impurity", "setting": "[1]; [4]", "result": 1.47}, {"measurement": "D = Total impurities excluding DRF (5R,20S)-1042", "setting": "[1]; [4]", "result": 5.02}, {"measurement": "A = DRF (5R,20S)-1042", "setting": "[1]; Meglumine neutralized, Initial", "result": 1.05}, {"measurement": "B = Decarboxylated impurity", "setting": "[1]; Meglumine neutralized, Initial", "result": 0.03}, {"measurement": "C = Dimer impurity", "setting": "[1]; Meglumine neutralized, Initial", "result": 0.54}, {"measurement": "D = Total impurities excluding DRF (5R,20S)-1042", "setting": "[1]; Meglumine neutralized, Initial", "result": 1.49}, {"measurement": "A = DRF (5R,20S)-1042", "setting": "[1]; NaOH as is, 24 hours RT", "result": 101.79}, {"measurement": "B = Decarboxylated impurity", "setting": "[1]; NaOH as is, 24 hours RT", "result": 0.02}, {"measurement": "C = Dimer impurity", "setting": "[1]; NaOH as is, 24 hours RT", "result": 0.48}, {"measurement": "D = Total impurities excluding DRF (5R,20S)-1042", "setting": "[1]; NaOH as is, 24 hours RT", "result": 1.95}, {"measurement": "A = DRF (5R,20S)-1042", "setting": "[1]; NaOH as is, Initial", "result": 75.40}, {"measurement": "B = Decarboxylated impurity", "setting": "[1]; NaOH as is, Initial", "result": 0.02}, {"measurement": "C = Dimer impurity", "setting": "[1]; NaOH as is, Initial", "result": 0.35}, {"measurement": "D = Total impurities excluding DRF (5R,20S)-1042", "setting": "[1]; NaOH as is, Initial", "result": 1.81}, {"measurement": "A = DRF (5R,20S)-1042", "setting": "[1]; NaOH neutralized, 24 hours RT", "result": 56.26}, {"measurement": "B = Decarboxylated impurity", "setting": "[1]; NaOH neutralized, 24 hours RT", "result": 0.02}, {"measurement": "C = Dimer impurity", "setting": "[1]; NaOH neutralized, 24 hours RT", "result": 0.37}, {"measurement": "D = Total impurities excluding DRF (5R,20S)-1042", "setting": "[1]; NaOH neutralized, 24 hours RT", "result": 2.22}, {"measurement": "A = DRF (5R,20S)-1042", "setting": "[1]; NaOH neutralized, Initial", "result": 56.75}, {"measurement": "B = Decarboxylated impurity", "setting": "[1]; NaOH neutralized, Initial", "result": 0.02}, {"measurement": "C = Dimer impurity", "setting": "[1]; NaOH neutralized, Initial", "result": 0.38}, {"measurement": "D = Total impurities excluding DRF (5R,20S)-1042", "setting": "[1]; NaOH neutralized, Initial", "result": 1.81}, {"measurement": "increase in aqueous solubility and solubility in bio-relevant media vs uncomplexed state", "setting": "physchem", "result": "more than 50 fold"}, {"measurement": "increase in aqueous solubility when compared with water alone", "setting": "physchem", "result": "over 50 fold"}, {"measurement": "solubility", "setting": "physchem; 25 °C, water, thermodynamic from solid, Solubility", "result": 20, "unit": "µg/mL"}, {"measurement": "AUC", "setting": "in vivo", "result": 1.21, "unit": "µM·h"}, {"measurement": "Safety Margin GI90/GI50", "setting": "[2]", "result": 0.14}]}
